Data on 6 compounds can be found in patent publication US8211901B2, “Naphthamide derivatives as multi-target protein kinase inhibitors and histone deacetylase inhibitors” (Shenzhen Chipscreen Biosciences Ltd., priority 2009, dated 2012).

The structures appear in SMILES notation.

Data set [1] has as its system Bel-7402. The experiment in a line: Tumor cell proliferation (MTS), Bel-7402. In kind it is cell-based. Conditions: Homo sapiens, 72 hours, complete medium. As for the experimental part: (§1) Measurement of In Vivo Cell Proliferation:
(§2) Tumor cells were trypsinized and plated into 96-well plates at 3,000 per well and incubated in complete medium with 10% FBS for 24 hours. Compounds were added over a final concentration range of 100 μmol/L to 100 nmol/L in 0.1% DMSO and incubated for 72 hours in complete medium. The effects on proliferation were determined by addition of MTS reagent (Promega) according to the instruction, incubation for 2 hours at 37° C. in CO2 incubator, and record the absorbance at 490 nm using an ELISA plate reader.
(§3) Human Cell Lines are Listed Below:
Bel-7402: Hepatocellular carcinoma

Data set [2] has as its system HUVEC cells. Kind of data set: VEGF dependent cell proliferation (MTS). In kind it is cell-based. Conditions: Homo sapiens, VEGF 165 50 ng/ml, 72 hours, serum-free medium, read-out: GI50 nM (VEGF ligand-dependent cell proliferation). As for the experimental part: VEGF Dependent Cell Proliferation:
HUVEC cells were plated into 96-well plates at 6,000 per well and incubated with serum-free medium for 2 hours. Compounds and VEGF 165 (50 ng/ml) were added and incubated for 72 hours in serum-free medium. The effects on proliferation were determined by addition of MTS reagent (Promega) according to the instruction, incubation for 2 hours at 37° C. in CO2 incubator, and record the absorbance at 490 nm using an ELISA plate reader.

The test system of data set [3] is total HDAC enzyme (HeLa extract). Kind of data set: In vitro inhibition of total HDAC enzyme activity (HDAC Fluorimetric Assay/Drug Discovery Kit). In kind it is biochemical. As for the experimental part: Measurement of In Vitro Inhibition of Total HDAC Enzyme Activity:
The in vitro inhibition of total HDAC enzyme was determined by HDAC Fluorimetric Assay/Drug Discovery Kit (BIOMOL) according to manufacture's instruction. • 1. Add Assay buffer, diluted trichostatin A or test inhibitor to appropriate wells of the microtiter plate. Following table lists examples of various assay types and the additions required for each test.
• 2. Add diluted HeLa extract or other HDAC sample to all wells except those that are to be “No Enzyme Controls” (Blank). • 3. Allow diluted Fluor de Lys™ Substrate and the samples in the microtiter plate to equilibrate to assay temperature (25° C.). • 4. Initiate HDAC reactions by adding diluted substrate (25 μl) to each well and mixing thoroughly. • 5. Allow HDAC reactions to proceed for desired length of time and then stop them by addition of Fluor de Lys™ Developer (50 μl). Incubate plate at room temperature (25° C.) for 10-15 min. • 6. Read samples in a microtiter-plate reading fluorimeter capable of excitation at a wavelength in the range 350-380 nm and detection of emitted light in the range 440-460 nm. Measurement of In Vivo Inhibition of HDAC Subtype Activity: […]

Data set [4] concerns A-498. Kind of data set: Tumor cell proliferation (MTS), A-498. In kind it is cell-based. Conditions: Homo sapiens, A498; 72 hours, complete medium. As for the experimental part:
as §1, §2

The subject of data set [5] is MCF-7. Kind of data set: Tumor cell proliferation (MTS), MCF-7. It is filed as cell-based. To be noted: Homo sapiens, MCF7; 72 hours, complete medium. As for the experimental part: as §1, §2, §3
MCF-7: Mammary gland adenocarcinoma

The target of data set [6] is T1, human PDGFRβ (Homo sapiens, UniProt P09619).
T1 construct: expressed in transfected cells
The experiment in a line: PDGF dependent cell proliferation (MTS). In kind it is cell-based. Conditions: PDGFRβ NIH-3T3 cells, PDGF BB 50 ng/ml, 72 hours, serum-free medium; read-out: GI50 nM (PDGF ligand-dependent cell proliferation). As for the experimental part:
PDGF Dependent Cell Proliferation:
NIH-3T3 mouse fibroblasts cell line engineered to stably express human PDGFIRβ was constructed and used to evaluate PDGF dependent cell proliferation. PDGFRβ NIH-3T3 cells were plated into 96-well plates at 5,000 per well and incubated with serum-free medium for 24 hours. Compounds and PDGF BB (50 ng/ml) were added and incubated for 72 hours in serum-free medium. The effects on proliferation were determined by addition of MTS reagent (Promega) according to the instruction, incubation for 2 hours at 37° C. in CO2 incubator, and record the absorbance at 490 nm using an ELISA plate reader.

Data set [7] relates to Class I HDAC. The experiment in a line: P21 reporter gene assay in HeLa cells. In kind it is cell-based. To be noted: 24 hours. As for the experimental part:
HDAC subtype selectivity inhibition assay of tested compounds was carried out by several reporter gene assays experiments. Briefly, HeLa cells were seeded in 96-well plates the day before transfection to give a confluence of 50-80%. Cells were transfected with one of reporter gene plasmid containing a promoter sequence or response element upstream of a luciferase gene construct using FuGene6 transfection reagent according to the manufacturer's instruction (Roche). The promoters or response elements including p21-promoter was fused upstream to the luciferase gene reporter construct. For normalizing the transfection efficiency, a GFP expression plasmid was cotransfected. Cells were allowed to express protein for 24 hours followed by addition of individual compounds or the vehicle (DMSO). 24 hours later the cells were harvested, and the luciferase assay and GFP assay were performed using corresponding assay kits according to the manufacturer's instructions (Promega).
A general note: In a reporter assay the amount or activity of a reporter protein is the signal.

Data set [8] deals with HCT-8. Kind of data set: Tumor cell proliferation (MTS), HCT-8. In kind it is cell-based. Conditions: Homo sapiens, 72 hours, complete medium. As for the experimental part:
as §1, §2, §3
HCT-8: Ileocecal colorectal adenocarcinoma

In data set [9] the test system is A549. Kind of data set: Tumor cell proliferation (MTS), A549. It is filed as cell-based. Conditions: Homo sapiens, 72 hours, complete medium. As for the experimental part: as §1, §2, §3
A549: Non small cell lung carcinoma

The nature of data set [10]: Body weight in HCT-8 xenograft study (Example 54). It is filed as in vivo, nu/nu mice. As for the experimental part:
(§4) The antitumor activity of compound 33 and compound 34 were measured in human HCT-8 colon cancer xenograft model. The female nu/nu mice of 18˜20 g were fed by normal diet for 3 days. Then the cultured HCT-8 human colon cancer cells were implanted into the armpit of 50 mice. When tumors had reached approximately 100 mm^3, the mice were divided into 6 groups randomly. Each group has 8 mice. One group was treated with vehicle. One group was treated with sutent, the positive control drug. Two groups were treated with compound 33. The other two groups were treated with compound 34. Each group was dosed orally once a day for 20 days. Tumor volumes as established by caliper measurements were recorded twice per week, along with body weights. At the end of study, the mice were killed, and tumors were weighed. The tumor growth inhibition of each group was calculated using the formula {[(the average tumor weight of vehicle group)−(the average tumor weight of drug group)]/(the average tumor weight of vehicle group)}×100%.

For data set [11], the system named is human HCT-8 colon cancer xenograft. The experiment in a line: Antitumor activity of compounds 33 and 34, HCT-8 xenograft (Example 54). It is filed as in vivo, nu/nu mice. As for the experimental part: as §4
Data set [12] is described as follows: Body weight in HCT-8 xenograft study (Example 55). In kind it is in vivo, nu/nu mice. As for the experimental part: as §4, with “37” for “34”, “When tumors had reached approximately 100 mm^3, the mice were divided into 6 groups randomly. Each group has 8 mice.” left out, “37. Compound 33 was administered twice a day with an interval of 6 hours. Other drugs and vehicle were administered once a day.” for “34.”, “orally” for “orally once a day”

The nature of data set [13]: Body weight in SSMC7721 xenograft study (Example 56). It is filed as in vivo, nu/nu mice. As for the experimental part:
The antitumor activity of compound 33 and compound 37 were measured in human SSMC7721 liver cancer xenograft model. The female nu/nu mice of 18˜20 g were fed by normal diet for 3 days. Then the cultured SSMC7721 human liver cancer cells were implanted into the armpit of 50 mice. […] Each group has 8 mice. One group was treated with vehicle. One group was treated with sutent, the positive control drug. Two groups were treated with compound 33. The other two groups were treated with compound 37. Each group was dosed orally once a day for 30 days. Tumor volumes as established by caliper measurements were recorded twice per week, along with body weights. At the end of study, the mice were killed, and tumors were weighed. The tumor growth inhibition of each group was calculated using the formula {[(the average tumor weight of vehicle group)−(the average tumor weight of drug group)]/(the average tumor weight of vehicle group)}×100%.

Where [14] appears, read: 30 mg/kg orally once a day for 20 days.
The mark [15] stands for this setting: 60 mg/kg orally once a day for 20 days.
Setting [16] is: 30 mg/kg orally once a day for 30 days.
Where [17] appears, read: 60 mg/kg orally once a day for 30 days.

T1 sequence (P09619 33-1106): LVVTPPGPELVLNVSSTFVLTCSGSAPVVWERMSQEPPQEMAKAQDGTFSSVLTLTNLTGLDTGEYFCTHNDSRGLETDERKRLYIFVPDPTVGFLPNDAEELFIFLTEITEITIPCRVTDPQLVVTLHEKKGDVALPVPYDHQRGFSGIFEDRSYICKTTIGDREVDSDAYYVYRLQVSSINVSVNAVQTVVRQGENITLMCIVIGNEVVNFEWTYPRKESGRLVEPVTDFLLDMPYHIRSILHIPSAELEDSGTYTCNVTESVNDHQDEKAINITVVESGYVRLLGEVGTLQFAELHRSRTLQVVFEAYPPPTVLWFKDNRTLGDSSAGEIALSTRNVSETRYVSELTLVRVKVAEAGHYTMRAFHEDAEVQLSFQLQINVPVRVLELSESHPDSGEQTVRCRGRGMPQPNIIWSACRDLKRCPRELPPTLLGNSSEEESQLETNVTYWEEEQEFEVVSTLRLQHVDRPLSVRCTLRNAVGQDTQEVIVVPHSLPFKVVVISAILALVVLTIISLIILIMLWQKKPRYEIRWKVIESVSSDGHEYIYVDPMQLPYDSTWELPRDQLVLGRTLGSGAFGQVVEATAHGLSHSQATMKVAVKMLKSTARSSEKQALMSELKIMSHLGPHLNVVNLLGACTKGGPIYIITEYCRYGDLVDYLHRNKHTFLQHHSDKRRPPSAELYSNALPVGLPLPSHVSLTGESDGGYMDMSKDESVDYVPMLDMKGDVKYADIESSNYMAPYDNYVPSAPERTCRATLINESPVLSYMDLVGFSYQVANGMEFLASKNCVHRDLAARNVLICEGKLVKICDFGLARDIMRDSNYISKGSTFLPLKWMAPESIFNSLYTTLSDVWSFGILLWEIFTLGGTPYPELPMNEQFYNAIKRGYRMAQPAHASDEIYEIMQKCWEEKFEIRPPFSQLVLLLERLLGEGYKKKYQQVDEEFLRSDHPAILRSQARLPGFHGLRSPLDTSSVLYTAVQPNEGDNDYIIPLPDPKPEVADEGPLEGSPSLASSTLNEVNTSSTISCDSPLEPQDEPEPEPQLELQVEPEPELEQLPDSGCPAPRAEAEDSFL

As for `COc1ccc2c(Oc3ccc4c(C(=O)Nc5ccc(F)cc5N)cccc4c3)ccnc2c1` [Example 32, N-(2-amino-4-fluorophenyl)-6-(7-methoxyquinolin-4-yloxy)-1-naphthamide], the GI50 in data set [1] came to 17.3 µM; in [2] it was 2 nM; in [4], 7.5 µM; in [5] it was 15.9 µM; in data set [6] it was 20 nM; in [8], 6.6 µM. Besides, the GI50 in data set [9] worked out at 8.3 µM. For the same compound, the “% inhibition of total HDAC enzyme activity at 30 μM” value (“% inhibition” below) in [3] stood at 21.7%. In addition, the “Class I HDAC (P21 reporter assay) Fold Induction at 10 μM” value in data set [7] came to 1.8 Fold.
As for `COc1ccc2c(Oc3ccc4c(C(=O)NCc5ccc(C(=O)Nc6ccccc6N)cn5)cccc4c3)ccnc2c1` [Example 34], the “Body weight (g) end” value was 21.2 ± 1.9 g in data set [10] (setting [14]) and 21.6 ± 2.3 g in data set [10] (setting [15]). For the same compound, the results for the “Body weight (g) start” value in [10] (setting [14]) and in data set [10] (setting [15]) were 19.7 ± 1.2 g and 19.6 ± 1.1 g, respectively. The GI50 worked out at 17.7 µM in data set [1]; 90 nM in data set [2]; 7.9 µM in data set [4]; 5.2 µM in [5]; 248 nM in data set [6]; 5.5 µM in [8]. The same compound showed a GI50 in data set [9] of 11.2 µM. In addition, in [3], the “% inhibition” value came to 38.8%. For the same compound, the figures for the “TGI (%) Tumor growth inhibition” value in data set [11] (setting [14]) and in [11] (setting [15]) were 3.07% and 32.7%, respectively. Also, the “Tumor weight” value in data set [11] (setting [14]) is reported as 3.95 ± 0.73 g; in [11] (setting [15]), 2.74 ± 0.77 g. For the same compound, the “Class I HDAC (P21 reporter assay) Fold Induction at 10 μM” value in data set [7] amounted to 5.0 Fold.
On to `COc1cc2nccc(Oc3ccc4c(C(=O)Nc5ccccc5N)cccc4c3)c2cc1OC` [Example 35, N-(2-aminophenyl)-6-(6,7-dimethoxyquinolin-4-yloxy)-1-naphthamide], for which the GI50 turned out to be 19.5 µM in [1]; 1 nM in data set [2]; 9.1 µM in [4]; 13.3 µM in [5]; 5 nM in data set [6]; 8.9 µM in [8]. In data set [9], this compound returned a GI50 of 7.7 µM. For the same compound, the “% inhibition” value in data set [3] stood at 19.3%. Further, the “Class I HDAC (P21 reporter assay) Fold Induction at 10 μM” value in [7] came to 1.2 Fold.
For the compound `COc1cc2nccc(Oc3ccc4c(C(=O)Nc5ccc(F)cc5N)cccc4c3)c2cc1OC` [Example 36, N-(2-amino-4-fluorophenyl)-6-(6,7-dimethoxyquinolin-4-yloxy)-1-naphthamide], the GI50 stood at 12.1 µM in data set [1]; 2 nM in data set [2]; 4.2 µM in [4]; 8.9 µM in [5]; 3 nM in data set [6]; 4.1 µM in data set [8]. The GI50 in [9] worked out at 7.4 µM. In addition, the “% inhibition” value in data set [3] is 14.4%. Further, the “Class I HDAC (P21 reporter assay) Fold Induction at 10 μM” value in data set [7] came to 1.2 Fold.
On to `COc1cc2nccc(Oc3ccc4c(C(=O)NCc5ccc(C(=O)Nc6ccccc6N)cc5)cccc4c3)c2cc1OC` [Example 37, N-(4-((2-aminophenyl)carbamoyl)benzyl)-6-(6,7-dimethoxyquinolin-4-yloxy)-1-naphthamide], for which the GI50 in data set [1] is 30 µM; in data set [2] it was 4 nM; in data set [4] it was not below 30 µM; in data set [5] it was 30 µM; in data set [6] it was 159 nM; in [8], 30 µM. The compound also displayed a GI50 in data set [9] of 30 µM. The “% inhibition” value in data set [3] was determined as 35.9%. Further, the “Body weight (g) end” value in [12] (setting [14]) stood at 23.6 ± 2.2 g; in [12] (setting [15]) it was 24.1 ± 2.1 g; in [13] (setting [16]) it was 25.3 ± 0.9 g; in data set [13] (setting [17]), 24.3 ± 1.1 g. Also, the “Body weight (g) start” value stood at 20.6 ± 0.8 g in data set [12] (setting [14]), 20.8 ± 0.8 g in [12] (setting [15]), 20.7 ± 1.2 g in [13] (setting [16]) and 21.4 ± 0.6 g in data set [13] (setting [17]). In addition, in data set [7], the “Class I HDAC (P21 reporter assay) Fold Induction at 10 μM” value was 3.0 Fold.
As to `COc1cc2nccc(Oc3ccc4c(C(=O)NCc5ccc(C(=O)Nc6ccccc6N)cn5)cccc4c3)c2cc1OC` [Example 38], the GI50 stood at 30 µM in data set [1]; 25 nM in data set [2]; 6.9 µM in [4]; 9.4 µM in data set [5]; 74 nM in [6]; 8 µM in data set [8]. This compound came in with a GI50 in data set [9] of 30 µM. Moreover, the “% inhibition” value in data set [3] was 39.3%. Moreover, the “Class I HDAC (P21 reporter assay) Fold Induction at 10 μM” value in data set [7] was determined as 3.1 Fold.
